Article PMC7663263 (Molecules, 2020)
Read-outs that look alike come from different tables or passages of the source.

Legend:
B. pahangi TrxR = B. pahangi TrxR enzyme assay, DTNB reduction (original data); type: biochemical, Brugia pahangi; settings: 100 nM enzyme, 3 mM DTNB; after 10 min preincubation; read-out: IC50 B. pahangi TrxR, substrate DTNB (original data)
Protocol: Enzymes were prepared in E. coli as described. Assays were performed at 25 °C in 0.1 M potassium phosphate (pH 7.4), 10 mM EDTA using 100 μM NADPH and 3 mM dithiobis(2-nitrobenzoic acid) (DTNB). […] The increase in A412 during the first 3 min was recorded upon DTNB addition. The reaction was done in triplicate.

[1] = tested on: adult female B. pahangi worms; assay: Adult in vitro Brugia pahangi motility assay (Worminator); type: cell-based; settings: for Inhibition of Motility (%) Day 1 / Inhibition of Motility (%) Day 2 / Inhibition of Motility (%) Day 3 / Inhibition of Motility (%) Day 6: female B. pahangi, n = 4 worms; for IC50: adult female Brugia pahangi, worminator motility assay, six-point serial dilution
Protocol: Adult in vitro Brugia pahangi assay: Adult female B. pahangi worms were kindly provided by Dr. Brenda Beerntsen, University of Missouri, Columbia, MO. Individual female worms were assayed in 500 μL of culture medium (RPMI-1640 with 25 mM HEPES, 2.0 g/L NaHCO3, 5% heat-inactivated FBS and antibiotic/antimycotic solution) in 24-well plates. Worms treated with 1% DMSO served as negative control and there were four replicates per compound. Worms were maintained at 37 °C in a 5% CO2 incubator for the duration of the assay. Individual worm movement was assessed from day 1–6 using the Worminator [55], which reports worm motility as mean movement units (MMU), a measure of pixels displaced. MMUs are then used to calculate percent inhibition of worm motility compared to control worms.

O. ochengi adult female = assay: Onchocerca ochengi adult female worm assay (MTT/formazan); type: cell-based; settings: 10 μM; females assessed by MTT/formazan assay
Protocol: (§1) Onchocerca ochengi adult worm assays: For O. ochengi worm assays, subcutaneous nodules containing adult O. ochengi worms were removed from the hides of infected cows collected at abattoirs in Douala, Cameroon. Masses were incubated in 4 mL of complete culture medium (RPMI-1640, 5% newborn calf serum, 200 units/mL penicillin, 200 μg/mL streptomycin and 2.5 μg/mL amphotericin B) in standard 12-well culture plates and maintained in a 37 °C, 5% CO2 incubator overnight during which time the adult males migrated out of the masses while the females remained in the nodules. Compound and control wells (worms in 1% DMSO) were tested in quadruplicate and experiments were repeated twice on different days. Cultures were terminated on day 7. […] Adult female worm viability was assessed on day 7 by the standard MTT/formazan assay in which each nodular mass was placed in a well of a 48-well plate containing 500 μL of 0.5 mg/mL MTT (Sigma-Aldrich) in culture medium. Viability was evaluated visually by the extent to which the female worm mass was stained with MTT. Mean percent inhibition of formazan formation was calculated relative to the negative control worm masses after 7 days in culture.

O. ochengi adult male = assay: Onchocerca ochengi adult male worm motility assay; type: cell-based; settings: 10 μM
Protocol: as §1

O. ochengi microfilariae = O. ochengi microfilariae motility assay; type: cell-based, Onchocerca ochengi; settings: 10 μM
Protocol: (§2) O. ochengi microfilariae assays: were collected from the hides of infected cattle and washed prior to adding 10–15 microfilariae to 96-well culture plates containing confluent monkey kidney epithelial cells in 100 μL of media. Microfilariae were run in duplicate and plates were maintained at 37 °C in a 5% CO2 incubator. Microfilariae viability was visually scored using percent reduction of motility using the same scoring criteria used for adult males. Scores were recorded every 24 h after addition of drugs for 5 days using an inverted microscope.

L. loa microfilariae = L. loa microfilariae motility assay; type: cell-based; settings: 10 μM
Protocol: as §2
L. loa microfilariae assays: L. loa microfilariae were purified from the blood of infected individuals using a step-wise Percoll gradient (46% and 43% Percoll) followed by centrifugation at 400 rcf for 20 min. The microfilariae were recovered in the 43% layer then assayed using the same culture conditions and method as the O. ochengi microfilariae.

[2] = tested on: T. b. gambiense (ITMAP/1893); assay: Anti-trypanosomal activity, T. b. gambiense trypomastigotes (resazurin); type: cell-based, Trypanosoma brucei gambiense; settings: 72 h, read-out: T. b. gambiense IC50 (µM) ± SD
Protocol: Anti-trypanosomal activity: T. b. brucei Squib-427 strain (suramin-sensitive) and T. b. gambiense (ITMAP/1893) were cultured at 37 °C and 5% CO2 in HMI-9 medium supplemented with 10% FCS [90]. About 10^4 trypomastigotes/well were added to each well and parasite growth was assessed after 72 h at 37 °C by adding resazurin and reading at ex 550 nm, em 590 nm. Suramin was included as reference drug for T. b. brucei and pentamidine for T. b. gambiense.

T. cruzi Tulahuen CL2 = assay: Anti-Chagas activity, T. cruzi on MRC-5 cells; type: cell-based; settings: amastigotes, MRC-5 host cells, 7 days; read-out: Trypanosoma cruzi IC50 (µM) ± SD
Protocol: Anti-Chagas activity: T. cruzi Tulahuen CL2 (benznidazole-sensitive, LacZ-reporter strain) was maintained on MRC-5 cells in minimal essential medium (MEM) supplemented with […], 16.5 mM sodium hydrogen carbonate and 5% FCS. In the assay, 4 × 10^3 MRC-5 cells and 4 × 10^4 parasites were added to each well. After incubation at 37 °C for 7 days, parasite growth was assessed by adding the substrate chlorophenol red -D-galactopyranoside. The color reaction was read at 540 nm after 4 h and absorbance values were expressed as a percentage of the blank controls. Benznidazole was included as reference drug.

BL3 cells = type: cell-based, bovine
Protocol: Theileria annulata culture: The TBL3 cell line was derived by in vitro infection of the spontaneous bovine B-lymphosarcoma cell line BL3 with the Hissar stock of T. annulata. B cell characteristics of the lines have been described. The cells are maintained at 37 °C under 5% CO2, in RPMI medium supplemented with 10% FCS, 25 mM Hepes, 4 mM L-glutamine, 100 μg/mL of streptomycin, 100 IU/mL of penicillin and […] 2-mercapthoethanol.
Cells were cultured in 12-well plates at an initial density of 200,000 cells per well in duplicate for each condition. […] The cells were cultured in 12-well plates at an initial density of 200,000 cells per well and drug was added every 24 h. To be able to compare the results, a drug-free control was also performed. Cell counting was done at 24, 72 and 96 h using the trypan blue method.

Human TrxR = settings: 30 nM enzyme, 20 µM substrate; after 10 min enzyme-NADPH-gold complex preincubation; read-out: IC50 Human TrxR, substrate hTrxC72S; cited from earlier work

For `CC(=O)OCC1OC([S][Au][PH]2(c3ccccc3)C(c3ccccn3)=CC=C2c2ccccn2)C(OC(C)=O)C(OC(C)=O)C1OC(C)=O` [GoPI-sugar, 1-thio-β-D-glucopyranose 2,3,4,6-tetraacetato-S-Au{1-phenyl-2,5-di(2-pyridyl)phosphole}], the IC50 (B. pahangi TrxR) was 5.5 nM, the “Inhibition of Motility (%) Day 1” value ([1]; 1 μM) was 20% and the “Inhibition of Motility (%) Day 2” value ([1]; 1 μM) was 16%. For the same compound, the “Inhibition of Motility (%) Day 3” value ([1]; 1 μM) was 22%, the “Inhibition of Motility (%) Day 6” value ([1]; 1 μM) was 48% and the “Inhibition of Motility (%) Day 1” value ([1]; 3 μM) was 24%. For the same compound, the “Inhibition of Motility (%) Day 2” value ([1]; 3 μM) was 41%, the “Inhibition of Motility (%) Day 3” value ([1]; 3 μM) was 40% and the “Inhibition of Motility (%) Day 6” value ([1]; 3 μM) was 96%. The “Inhibition of Motility (%) Day 1” value ([1]; 10 μM) was 91%, the “Inhibition of Motility (%) Day 2” value ([1]; 10 μM) was 98% and the “Inhibition of Motility (%) Day 3” value ([1]; 10 μM) was 100%. The “Inhibition of Motility (%) Day 6” value ([1]; 10 μM) was 99%, the IC50 ([1]; read-out: IC50 (µM) Day 2) was 2.8 µM and the IC50 ([1]; read-out: IC50 (µM) Day 3) was 3.9 µM. The IC50 ([1]; read-out: IC50 (µM) Day 6) was 1.7 µM, the “% Inhibition of Motility O. ochengi Adult Female Day 7” value (O. ochengi adult female) was 51% and the “% Inhibition of Motility O. ochengi Adult Male Day 5” value (O. ochengi adult male) was 100%. The “% Inhibition of Motility O. ochengi mf Day 5” value (O. ochengi microfilariae) was 100%, the “% Inhibition of Motility L. loa mf w/MK2 Cells Day 5” value (L. loa microfilariae) was 38% and the IC50 [2] was 1.11 ± 0.12 µM. The IC50 (T. cruzi Tulahuen CL2) was 0.56 ± 0.11 µM, the CC50 (BL3 cells) was roughly 500 nM and the IC50 (Human TrxR) was 4.3 ± 1.6 nM.
